Consider one compound from US20200093801A1, “NEW METHODS FOR THE TREATMENT OF MULTIPLE SCLEROSIS” (Novartis AG, priority 2017, published 2020).

This test concerns Cuprizone-Induced Demyelination in Mice. The test can be described thus: Cuprizone-induced demyelination in mice at 20 mg/kg and 60 mg/kg, MRI. It is filed as in vivo, Mice (C57BL/6J). An excerpt: Studies described below were approved by the Swiss Cantonal Veterinary Authority of Basel City, Switzerland, under the license number 2711. Mice (C57BL/6J) were commercially purchased from Charles River Laboratories, Germany or obtained from Novartis Pharma AG breeding colonies (8-9 weeks old, females). All the animals were allowed to adapt for 7 days prior the start of the experiment and housed in IVC racks (max. 4 mice/XJ Type cage). The animals were given access to food and water ad libitum. Animals were treated with cuprizone for 5 weeks. Cuprizone (Bis(cyclohexanone)oxaldihydrazone, Sigma-Aldrich) was mixed into rodent food pellets (0.2% w/w) by Provimi Kliba AG, Switzerland. Therapeutic treatment of animals after cuprizone was performed for 2 weeks on normal food with 20 and 60 mg/kg of BLZ945, qd, p.o. 10 ml/kg. BLZ945 was prepared in vehicle consisting of 0.5% methylcellulose in water and 0.1% Tween-80. Before killing 3 h after last BLZ945 dosing animals were perfused transcardially by phosphate-buffered saline (PBS), brains isolated and fixed in 4% paraformaldehyde (PFA) for 48 h at 4° C.
Measurements were performed with a Biospec 70/30 spectrometer (Bruker Medical Systems, Ettlingen, Germany) operating at 7 T. The operational software of the scanner was Paravision 5.1 (Bruker). Images were acquired from anesthetized, spontaneously breathing animals using a mouse brain circularly polarized coil (Bruker, Model 1P T20063V3; internal diameter 23 mm) for radiofrequency excitation and detection; neither cardiac nor respiratory triggering was applied. Following a short period of introduction in a box, animals were maintained in anesthesia with 1.5% isoflurane (Abbott, Cham, Switzerland) in oxygen, administered via a nose cone. During MRI signal acquisitions, animals were placed in prone position in a cradle made of Plexiglas, the body temperature was kept at 37±1° C. using a heating pad, and the respiration was monitored.
A T2-weighted, two-dimensional multislice RARE (Rapid Acquisition with Relaxation Enhancement) sequence (Hennig et al., 1986) was used for determining the anatomical orientation and for evaluating signal intensities. This was followed by a two-dimensional multislice gradient-recalled FLASH (Fast Low-Angle Shot) acquisition (Haase et al., 1986) for assessment of MTR. As both sequences had the same anatomical parameters, the choice of the regions-of-interest for evaluations was performed on the RARE images and then transferred to the FLASH images. The parameters of the acquisitions were the following: (a) RARE sequence: effective echo time 80 ms, repetition time 3280 ms, RARE factor 16, 12 averages, field of view 20×18 mm^2, matrix size 213×192, pixel size 0.094×0.094 mm^2, slice thickness 0.5 mm, 15 adjacent slices. Hermite pulses of duration/bandwidth 1 ms/5400 Hz and 0.64 ms/5344 Hz were used for radiofrequency excitation and refocusing, respectively. Fat suppression was achieved by a gauss512 pulse of 2.61 ms/1051 Hz duration/bandwidth followed by a 2-ms-long gradient spoiler. The total acquisition time was of 7 min 52.3 s; (b) FLASH sequence: echo time 2.8 ms, repetition time 252.8 ms, 4 averages, field of view 20×18 mm^2, matrix size 213×192, pixel size 0.094×0.094 mm^2, slice thickness 0.5 mm, 15 adjacent slices. A hermite pulse of 0.9 ms/6000 Hz duration/bandwidth and flipangle 30° was used for radiofrequency excitation. MTR contrast was introduced by a gauss pulse of 15 ms/182.7 Hz duration/bandwidth applied with a radiofrequency peak amplitude of 7.5 μT and an irradiation offset of 2500 Hz. The acquisition was then repeated with the same parameters but without the introduction of the MTR contrast. MTR was then computed using the formula MTR=(S0−SMTR)/S0, where S0 and SMTR represent respectively the signal intensities in the FLASH acquisitions without and with the introduction of the MTR contrast. The total acquisition time for both data sets was of 6 min 31.6 seconds.

[1] abbreviates: 60 mg/kg p.o. qd, therapeutic mode after 5 weeks cuprizone.
The mark [2] stands for this setting: 20 and 60 mg/kg p.o. qd, 2-week therapeutic treatment after 5 weeks 0.2% cuprizone, FIG. 9 legend.

Regarding `CNC(=O)c1cc(Oc2ccc3nc(N[C@@H]4CCCC[C@H]4O)sc3c2)ccn1` [BLZ945, 4-(2-((1R,2R)-2-hydroxycyclohexylamino)benzothiazol-6-yloxy)-N-methylpicolinamide], under setting [1], the “Remyelination by MRI, corpus callosum/external capsule” value is reported as “significantly enhanced remyelination”; the “Remyelination by MRI, cortex” value is listed as “significantly enhanced remyelination”; the “Remyelination by MRI, striatum” value is “only a trend”. Besides, under setting [2], the “MRI contrast in corpus callosum” value was “not corpus callosum”, the “MRI contrast in cortex” value is “reduces MRI contrast” and the “MRI contrast in striatum” value was “reduces MRI contrast”. Besides, for the setting “lower doses (20 and 60 mg/kg), short-term treatment for only 1 week, 5-week cuprizone model”, the “Remyelination as detected by MRI” value was “beneficial effects on remyelination”.
